Assays:
Type in all cases: in vivo
[1] = system: spring barley, HORVS Montoya; assay: Seed treatment with safener; post-emergence herbicide, crop damage; settings: 10 DAT; for HER effect + SAF / Reduction [%] / Reduction [Difference]: mefenpyr-diethyl 0.5 g a.i./kg seed
Description: (§1) For safener seed treatment trials, sufficient seed amounts of the respective crops (spring wheat (TRZAS); spring barley (HORVS)) were weighed into screw cap glass bottles with a minimum volume trice of the seeds.
(§2) As a first step, specified safeners formulated as wettable powder (WP) or wettable granules (WG) were weighed out for the required dosages (g a.i./kg seed), corresponding to the seed amounts. The safener amounts were mixed with a coloured slurry blind formulation type, prediluted with milk at 3.5% fat rate (25 mgs slurry formulation plus 2 ml milk per 10 grams of seed). A tube roller was used for coating. The solutions were gradually pipetted each on the rotating seeds followed by coating for min. 3 hours until all liquid had been soaked up by the seeds. Thereafter, the coated seeds were put flat on open trays for drying over night at room temperature.
(§3) Treated seeds were then placed into pots (7 cm diameter) on the surface of sandy loam, pressed down, flat covered with additional soil and finally covered with sandy soil, also pressed down, watered, and kept under good growth conditions in a greenhouse, until the plants had reached 2-leaf-stage (BBCH 12).
(§4) At that stage, post-emergence application of the specified herbicides was done on:
(§5) a) pot sets containing plants with safener-coated seeds as described above,
(§6) b) as a reference, pot sets of plants without seed treatment.
(§7) The herbicides were formulated as wettable powder (WP). Equivalent to the spray area, compound amounts were weighed out and diluted related to the water application rate (300 l/ha) to an aqueous suspension plus additive (1 l/ha MERO). Dosage related equivalents were conventionally sprayed on trays with the potted plants.
(§8) After application, the test plants were kept under good growth conditions in a greenhouse.
(§9) Assessment timings were 10 and 21 days after treatment (DAT) with the herbicide, by visual scoring of the crop damage in % (comparison of untreated with treated plants, either sprayed only with herbicide or with herbicide on plants with treated seeds).

[2] = system: spring wheat, TRZAS Triso; assay: as above; settings: for HER effect + SAF [%] (crop damage) / Reduction [%] / Reduction [Difference]: mefenpyr-diethyl 0.5 g a.i./kg seed; for HER effect [%] (crop damage, herbicide without safener): no safener
Description: as §1, §2, §3, §4, §5, §6, §7, §8, §9

[3] = system: spring barley, HORVS Montoya; assay: Tank-mix; post-emergence: crop damage by herbicide with/without safener mefenpyr-diethyl
Procedure: (§10) Seeds of crops (spring wheat, TRZAS; spring barley, HORVS; maize, ZEAMA) were placed in sandy loam soil in peat pots, covered with soil and cultivated in a greenhouse under good growth conditions. Two to three weeks after sowing, the test plants were treated at the 1 to 3-leaf stage. The herbicide/safener active compound combinations according to the invention, formulated as wettable powders or emulsion concentrates, and, in parallel tests, the correspondingly formulated individual active compounds were sprayed onto the green parts of the plants in various dosages using an amount of water of 300 l/ha (converted).
(§11) The pots were returned under good growing conditions in a glasshouse and a visual assessment of herbicidal effects was made at intervals from 1 to 3 weeks after herbicide application (DAT=days after treatment). Assessment was on a percentage basis in comparison with untreated control plants (0%=no injury, 100%=complete kill).

[4] = system: spring wheat, TRZAS Triso; assay: as above
Procedure: as §10, §11

[5] = HER 32 g a.i./ha post-emergence
[6] = herbicide alone 8 g a.i./ha post-emergence
[7] = herbicide alone 32 g a.i./ha post-emergence
[8] = HER 8 g a.i./ha + mefenpyr-diethyl 50 g a.i./ha, 10 DAT
[9] = herbicide alone 8 g a.i./ha, 10 DAT
[10] = HER 6 g a.i./ha + mefenpyr-diethyl 50 g a.i./ha, 10 DAT
[11] = HER 24 g a.i./ha + mefenpyr-diethyl 100 g a.i./ha, 10 DAT
[12] = HER 4 g a.i./ha + mefenpyr-diethyl 50 g a.i./ha, 10 DAT
[13] = HER 16 g a.i./ha + mefenpyr-diethyl 100 g a.i./ha, 10 DAT
[14] = herbicide alone 4 g a.i./ha, 10 DAT
[15] = herbicide alone 16 g a.i./ha, 10 DAT
[16] = HER 2 g a.i./ha + mefenpyr-diethyl 50 g a.i./ha, 10 DAT
[17] = HER 8 g a.i./ha + mefenpyr-diethyl 100 g a.i./ha, 10 DAT
[18] = HER 2 g a.i./ha + mefenpyr-diethyl 100 g a.i./ha, 21 DAT
[19] = herbicide alone 2 g a.i./ha, 21 DAT
[20] = HER 2 g a.i./ha + mefenpyr-diethyl 50 g a.i./ha, 21 DAT

Structure (SMILES): CC1(C(=O)NC2CC=C(C(=O)NS(C)(=O)=O)C2)CC(c2cc(F)cc(F)c2)=NO1 (mixture of isomers) [Example 1.61]
- HER effect + SAF ([1]; HER 8 g a.i./ha post-emergence): 10%
- Reduction [%] ([1]; HER 8 g a.i./ha post-emergence): 80%
- Reduction [Difference] ([1]; HER 8 g a.i./ha post-emergence): 40
- HER effect + SAF [1, 5]: 20%
- Reduction [%] [1, 5]: 67%
- Reduction [Difference] [1, 5]: 40
- HER effect [1, 6]: 50%
- HER effect [1, 7]: 60%
- HER effect + SAF [%] (crop damage) ([2]; 10 DAT, HER dose 8 g a.i./ha): 10%
- Reduction [%] ([2]; 10 DAT, HER dose 8 g a.i./ha): 80%
- Reduction [Difference] ([2]; 10 DAT, HER dose 8 g a.i./ha): 40
- HER effect [%] (crop damage, herbicide without safener) ([2]; 10 DAT, HER dose 8 g a.i./ha): 50%
- HER effect + SAF [3, 8]: 30%
- Reduction [%] [3, 8]: 40%
- Reduction [Difference] [3, 8]: 20
- HER effect [3, 9]: 50%
- HER effect + SAF [4, 10]: 10%
- Reduction [%] [4, 10]: 80%
- Reduction [Difference] [4, 10]: 40
- HER effect + SAF [4, 11]: 20%
- Reduction [%] [4, 11]: 60%
- Reduction [Difference] [4, 11]: 30
- HER effect ([4]; herbicide alone 6 g a.i./ha, 10 DAT): 50%
- HER effect ([4]; herbicide alone 24 g a.i./ha, 10 DAT): 50%

Structure (SMILES): C=CC1(C(=O)NC2COC(C(=O)OCCOC)C2)CC(c2cc(C)cc(F)c2)=NO1 (mixture of isomers) [Example 1.65]
- HER effect + SAF ([1]; HER 8 g a.i./ha post-emergence): 20%
- Reduction [%] ([1]; HER 8 g a.i./ha post-emergence): 75%
- Reduction [Difference] ([1]; HER 8 g a.i./ha post-emergence): 60
- HER effect + SAF [1, 5]: 50%
- Reduction [%] [1, 5]: 38%
- Reduction [Difference] [1, 5]: 30
- HER effect [1, 6]: 80%
- HER effect [1, 7]: 80%
- HER effect + SAF [%] (crop damage) ([2]; 10 DAT, HER dose 8 g a.i./ha): 0%
- Reduction [%] ([2]; 10 DAT, HER dose 8 g a.i./ha): 100%
- Reduction [Difference] ([2]; 10 DAT, HER dose 8 g a.i./ha): 20
- HER effect [%] (crop damage, herbicide without safener) ([2]; 10 DAT, HER dose 8 g a.i./ha): 20%
- HER effect + SAF [3, 8]: 20%
- Reduction [%] [3, 8]: 75%
- Reduction [Difference] [3, 8]: 60
- HER effect [3, 9]: 80%
- HER effect + SAF [4, 8]: 0%
- Reduction [%] [4, 8]: 100%
- Reduction [Difference] [4, 8]: 20
- HER effect [4, 9]: 20%

Structure (SMILES): CCOC(=O)C1CC(NC(=O)C2(C)CC(c3cccc(F)c3)=NO2)CO1 (mixture of isomers) [Example 1.67]
- HER effect + SAF [%] (crop damage) ([2]; 10 DAT, HER dose 4 g a.i./ha): 10%
- Reduction [%] ([2]; 10 DAT, HER dose 4 g a.i./ha): 80%
- Reduction [Difference] ([2]; 10 DAT, HER dose 4 g a.i./ha): 40
- HER effect [%] (crop damage, herbicide without safener) ([2]; 10 DAT, HER dose 4 g a.i./ha): 50%
- HER effect + SAF [%] (crop damage) ([2]; 10 DAT, HER dose 16 g a.i./ha): 20%
- Reduction [%] ([2]; 10 DAT, HER dose 16 g a.i./ha): 71%
- Reduction [Difference] ([2]; 10 DAT, HER dose 16 g a.i./ha): 50
- HER effect [%] (crop damage, herbicide without safener) ([2]; 10 DAT, HER dose 16 g a.i./ha): 70%
- HER effect + SAF [3, 12]: 0%
- Reduction [%] [3, 12]: 100%
- Reduction [Difference] [3, 12]: 30
- HER effect + SAF [3, 13]: 0%
- Reduction [%] [3, 13]: 100%
- Reduction [Difference] [3, 13]: 60
- HER effect [3, 14]: 30%
- HER effect [3, 15]: 60%
- HER effect + SAF [4, 12]: 10%
- Reduction [%] [4, 12]: 80%
- Reduction [Difference] [4, 12]: 40
- HER effect + SAF [4, 13]: 20%
- Reduction [%] [4, 13]: 71%
- Reduction [Difference] [4, 13]: 50
- HER effect [4, 14]: 50%
- HER effect [4, 15]: 70%

Structure (SMILES): COCCOC(=O)C1C=CC(NC(=O)C2(C(F)(F)F)CC(c3cc(F)cc(C#N)c3)=NO2)C1 (centres unmarked) [Example 1.2]
- HER effect + SAF [%] (crop damage) ([2]; 10 DAT, HER dose 8 g a.i./ha): 10%
- Reduction [%] ([2]; 10 DAT, HER dose 8 g a.i./ha): 89%
- Reduction [Difference] ([2]; 10 DAT, HER dose 8 g a.i./ha): 80
- HER effect [%] (crop damage, herbicide without safener) ([2]; 10 DAT, HER dose 8 g a.i./ha): 90%
- HER effect + SAF [%] (crop damage) ([2]; 10 DAT, HER dose 32 g a.i./ha): 30%
- Reduction [%] ([2]; 10 DAT, HER dose 32 g a.i./ha): 67%
- Reduction [Difference] ([2]; 10 DAT, HER dose 32 g a.i./ha): 60
- HER effect [%] (crop damage, herbicide without safener) ([2]; 10 DAT, HER dose 32 g a.i./ha): 90%
- HER effect + SAF [3, 16]: 0%
- Reduction [%] [3, 16]: 100%
- Reduction [Difference] [3, 16]: 20
- HER effect + SAF [3, 17]: 0%
- Reduction [%] [3, 17]: 100%
- Reduction [Difference] [3, 17]: 30
- HER effect ([3]; herbicide alone 2 g a.i./ha, 10 DAT): 20%
- HER effect [3, 9]: 30%
- HER effect + SAF [4, 8]: 50%
- Reduction [%] [4, 8]: 44%
- Reduction [Difference] [4, 8]: 40
- HER effect [4, 9]: 90%

Structure (SMILES): C=CC1(C(=O)NC2C=CC(C(=O)OC)C2)CC(c2cc(F)cc(F)c2)=NO1 (centres unmarked) [Example 1.26]
- HER effect + SAF [%] (crop damage) ([2]; 21 DAT, HER dose 2 g a.i./ha): 30%
- Reduction [%] ([2]; 21 DAT, HER dose 2 g a.i./ha): 67%
- Reduction [Difference] ([2]; 21 DAT, HER dose 2 g a.i./ha): 60
- HER effect [%] (crop damage, herbicide without safener) ([2]; 21 DAT, HER dose 2 g a.i./ha): 90%
- HER effect + SAF [%] (crop damage) ([2]; 21 DAT, HER dose 8 g a.i./ha): 70%
- Reduction [%] ([2]; 21 DAT, HER dose 8 g a.i./ha): 25%
- Reduction [Difference] ([2]; 21 DAT, HER dose 8 g a.i./ha): 23
- HER effect [%] (crop damage, herbicide without safener) ([2]; 21 DAT, HER dose 8 g a.i./ha): 93%
- HER effect + SAF [3, 18]: 0%
- Reduction [%] [3, 18]: 100%
- Reduction [Difference] [3, 18]: 60
- HER effect [3, 19]: 60%
- HER effect + SAF [4, 20]: 50%
- Reduction [%] [4, 20]: 44%
- Reduction [Difference] [4, 20]: 40
- HER effect [4, 19]: 90%
